Holding throughout (type): biochemical
The test system of assay [1] is Rat intestinal maltase. Put plainly: Inhibition of rat intestinal maltase (natural substrate, glucose release). The note with it: for IC50: isolated enzyme in vitro, mean of three measurements, read-out: IC50, α-Glucosidase, Rat intestinal maltase. The procedure: (§1) 4 Enzyme Inhibition Assays
(§2) All rat enzymes were isolated from 18-week-old, male Wistar rats, while human lysosomal α-glucosidase was obtained in commercially available form from Sanoﬁ Genzyme. Inhibition of isolated glucosidases was evaluated as described previously. 3 Brieﬂy, maltase, isomaltase, sucrase, and cellobiase were used as partially puriﬁed tissue extracts. Inhibition assays for each enzyme were performed with the respective natural substrate, and release of d-glucose measured by Glucose B-test (Wako Diagnostics). Assays of rat ER α-glucosidase II and human lysosomal α-glucosidase inhibition were conducted with α-p-nitrophenylglucoside as substrate; 400 mm Na2CO3 was added to quench these reactions, and the extent of hydrolysis was evaluated as absorbance at 400 nm by spectrophotometer.
(§3) ER α-glucosidase I inhibition assays were performed using anthranilic acid-labelled Glc3Man7GlcNAc2 as substrate. After terminating the reaction with acetonitrile, protein was removed by cen-trifugation through a 10 kDa molecular weight cut oﬀ ﬁlter. The amount of hydrolysis was then quantiﬁed by normal phase high performance liquid chromatography analysis of unreacted substrate and product (Glc2Man7GlcNAc2).4
(§4) ER α-glucosidase II inhibition assays using native-like substrates were performed using an-thranilic acid-labelled Glc2Man7GlcNAc2 as substrate. After terminating the reaction with acetonitrile, protein was removed by centrifugation through a 10 kDa molecular weight cut oﬀ ﬁlter. The amount of hydrolysis was then quantiﬁed by normal phase high performance liq-uid chromatography analysis of unreacted substrate and both products (Glc1Man7GlcNAc2

The target of assay [2] is T1, Rat liver ER α-glucosidase I (Rattus norvegicus, UniProt O88941).
T1 construct: Rat liver ER, I; from tissue; host or cells: liver of male Wistar rats
T1 sequence (O88941 1-834): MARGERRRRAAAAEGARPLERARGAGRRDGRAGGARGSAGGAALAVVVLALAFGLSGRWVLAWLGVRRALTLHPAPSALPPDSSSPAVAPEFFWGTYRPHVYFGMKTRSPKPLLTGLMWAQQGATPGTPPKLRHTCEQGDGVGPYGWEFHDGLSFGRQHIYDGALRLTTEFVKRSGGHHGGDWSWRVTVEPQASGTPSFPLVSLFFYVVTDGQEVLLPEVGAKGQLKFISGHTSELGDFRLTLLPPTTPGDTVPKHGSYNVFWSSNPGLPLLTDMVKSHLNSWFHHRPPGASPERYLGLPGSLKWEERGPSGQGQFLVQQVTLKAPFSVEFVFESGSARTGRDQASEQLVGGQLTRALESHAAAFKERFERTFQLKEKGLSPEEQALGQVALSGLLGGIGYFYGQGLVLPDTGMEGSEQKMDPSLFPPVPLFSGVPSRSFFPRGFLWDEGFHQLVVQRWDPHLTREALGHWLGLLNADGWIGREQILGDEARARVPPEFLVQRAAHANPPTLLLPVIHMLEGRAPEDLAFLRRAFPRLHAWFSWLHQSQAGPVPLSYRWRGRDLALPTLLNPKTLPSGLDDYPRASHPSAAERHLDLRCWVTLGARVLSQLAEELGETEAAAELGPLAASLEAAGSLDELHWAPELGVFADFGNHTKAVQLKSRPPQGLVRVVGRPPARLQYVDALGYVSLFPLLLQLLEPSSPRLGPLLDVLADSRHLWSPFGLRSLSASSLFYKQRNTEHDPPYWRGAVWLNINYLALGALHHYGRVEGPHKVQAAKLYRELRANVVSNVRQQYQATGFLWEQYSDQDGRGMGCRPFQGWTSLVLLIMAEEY
Description: Inhibition of isolated rat liver ER α-glucosidase I (anthranilic acid-labelled Glc3Man7GlcNAc2 substrate, HPLC). Conditions: for IC50: isolated enzyme in vitro, mean of three measurements. As to the method: as §1, §2, §3, §4

For assay [3], the target named is T2, Rat intestinal isomaltase (Rattus norvegicus, UniProt P23739).
T2 construct: from tissue; host or cells: intestine of male Wistar rats, partially purified extract
T2 sequence (P23739 whole entry): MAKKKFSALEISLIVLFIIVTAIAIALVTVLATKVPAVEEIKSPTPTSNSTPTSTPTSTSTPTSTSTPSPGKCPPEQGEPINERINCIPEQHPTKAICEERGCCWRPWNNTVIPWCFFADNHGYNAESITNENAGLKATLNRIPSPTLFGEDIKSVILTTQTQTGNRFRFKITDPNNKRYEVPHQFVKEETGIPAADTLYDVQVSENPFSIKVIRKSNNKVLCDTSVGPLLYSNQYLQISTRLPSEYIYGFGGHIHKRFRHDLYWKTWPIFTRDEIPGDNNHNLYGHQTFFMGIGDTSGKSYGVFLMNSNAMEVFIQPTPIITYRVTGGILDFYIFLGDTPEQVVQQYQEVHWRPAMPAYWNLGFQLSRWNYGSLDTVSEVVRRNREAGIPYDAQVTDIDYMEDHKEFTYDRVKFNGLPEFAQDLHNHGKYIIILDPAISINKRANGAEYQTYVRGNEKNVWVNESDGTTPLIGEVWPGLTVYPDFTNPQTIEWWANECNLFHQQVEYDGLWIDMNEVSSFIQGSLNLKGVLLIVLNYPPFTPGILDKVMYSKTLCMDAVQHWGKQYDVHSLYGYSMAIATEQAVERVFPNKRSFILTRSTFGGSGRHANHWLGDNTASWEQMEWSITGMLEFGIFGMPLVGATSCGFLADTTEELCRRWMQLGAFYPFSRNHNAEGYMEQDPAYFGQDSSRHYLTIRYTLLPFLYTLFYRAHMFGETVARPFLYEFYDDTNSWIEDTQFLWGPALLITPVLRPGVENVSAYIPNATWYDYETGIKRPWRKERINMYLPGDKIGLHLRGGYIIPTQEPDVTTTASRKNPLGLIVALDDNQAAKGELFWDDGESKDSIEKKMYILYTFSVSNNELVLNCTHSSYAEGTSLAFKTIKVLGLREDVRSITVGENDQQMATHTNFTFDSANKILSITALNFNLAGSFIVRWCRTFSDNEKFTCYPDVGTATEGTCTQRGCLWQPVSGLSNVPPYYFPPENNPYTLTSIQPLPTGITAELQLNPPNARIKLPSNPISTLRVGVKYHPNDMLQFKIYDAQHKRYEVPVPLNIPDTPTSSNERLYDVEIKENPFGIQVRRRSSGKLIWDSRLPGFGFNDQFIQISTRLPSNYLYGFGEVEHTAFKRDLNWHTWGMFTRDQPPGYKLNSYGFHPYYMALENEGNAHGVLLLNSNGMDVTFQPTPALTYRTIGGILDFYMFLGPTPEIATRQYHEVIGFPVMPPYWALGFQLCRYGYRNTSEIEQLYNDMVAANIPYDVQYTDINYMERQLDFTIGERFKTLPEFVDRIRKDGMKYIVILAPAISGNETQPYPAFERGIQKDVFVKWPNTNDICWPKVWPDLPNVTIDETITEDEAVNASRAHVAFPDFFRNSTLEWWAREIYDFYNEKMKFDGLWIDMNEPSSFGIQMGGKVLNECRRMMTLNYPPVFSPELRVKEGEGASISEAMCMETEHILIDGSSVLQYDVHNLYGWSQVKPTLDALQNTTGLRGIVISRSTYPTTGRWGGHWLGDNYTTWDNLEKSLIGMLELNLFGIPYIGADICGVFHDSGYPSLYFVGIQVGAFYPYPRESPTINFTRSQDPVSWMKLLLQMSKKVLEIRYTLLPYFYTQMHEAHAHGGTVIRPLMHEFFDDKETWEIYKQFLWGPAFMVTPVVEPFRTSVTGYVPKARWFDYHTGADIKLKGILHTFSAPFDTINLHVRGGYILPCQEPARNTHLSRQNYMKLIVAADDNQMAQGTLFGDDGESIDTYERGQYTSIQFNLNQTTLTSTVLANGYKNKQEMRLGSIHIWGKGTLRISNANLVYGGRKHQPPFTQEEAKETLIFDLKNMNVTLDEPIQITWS
Description: Inhibition of rat intestinal isomaltase (natural substrate, glucose release). The note with it: for IC50: isolated enzyme in vitro, mean of three measurements, read-out: IC50, α-Glucosidase, Rat intestinal isomaltase. The procedure: as §1, §2, §3, §4

Two compounds from publication PMC5824344 (ACS Chemical Biology, 2017) can be followed below.

With `Cc1c(C)c2c(c(C)c1OCCCCCN1CC(O)C(O)C(O)C1CO)CCC(C)(CCCC(C)CCCC(C)CCCC(C)C)O2` (stereo not drawn) [Compound 4, 5′-tocopheroxypentyl-DNJ], the “inhibition of intestinal maltase at the maximum tested concentration” value in assay [1] (50 μM) was “less than 50%”. In addition, the IC50 in assay [1], in assay [2] and in assay [3] was greater than 50000 nM each time. For the same compound, the inhibition at 50 µM in assay [2] (50 μM, read-out: inhibition of GluI at the maximum tested concentration) is less than 50%; in assay [3] (50 μM, read-out: inhibition of intestinal isomaltase at the maximum tested concentration), less than 50%.
As to `CCCCN1CC(O)C(O)C(O)C1CO` [Compound 2, N-butyl-D-1-deoxynojirimycin, reference compound], the IC50 in assay [1] came to 1700 nM; in assay [2], 680 nM; in assay [3], 1600 nM.
